Test results published in patent US8859545B2, “Tetrahydronaphthyridine and tetrahydropyrido[4,3-D]pyrimidine compounds and compositions thereof useful for the treatment of inflammatory and respiratory diseases” (Evotec AG, priority 2005, dated 2014).
Where a name gives a salt, the structure may show the parent alone.

Test system: P2X2/3 chimera (P2X2/3C)
Assay: Calcium uptake assay (P2X antagonist assay, agonist-induced calcium influx)
Type: cell-based
Source text: Human P2X3 (Accession no. NM_002559), P2X2 (Accession no. NM_170682) and Rat P2X3 (Accession no. NM_031075) and P2X2 (Accession no. NM_053656) are cloned into a mammalian expression vector (e.g., pcDNA5/TO or pcDNA3 Invitrogen). For coexpression of P2X2 and P2X3, the coding regions of both receptors were cloned into a bicistronic vector using methods similar to those described by Kawashima et al., Receptors Channels 5:53-60, 1998. The P2X2/3 chimera clone was created as described by Neelands et al, and then cloned into an expression vector as above. Receptors are expressed in cells (e.g., HEK293 or 1321N1) via transient transfection using standard lipid mediated transfection, or by creation of stable transfectants for each receptor. Cell lines are maintained in DMEM+5% Glutamax, the appropriate level of selective antibiotic, and 10% heat inactivated FBS.
The agonist EC50 is determined at the start of the assay and compound IC50 experiments are run using a set agonist concentration (EC50-90 depending on cell line) as stimulus. The agonists used are αβMeATP, ATP, or other ATP analogs. Compounds may be tested at concentrations ranging from 1 μM to 10 μM. Functional activity of compounds at the P2X receptor is determined by measuring their ability to inhibit agonist-induced calcium influx. Compounds may be tested for antagonist activity against the P2X2/3 chimera, the P2X3 homomer, or the P2X2/3 heteromer. To test for antagonist activity, cells expressing the appropriate receptor are seeded onto 96 or 384 well plates 18-24 hours prior to assay. On the day of the assay, cells are loaded with calcium-sensitive fluorescent dye (e.g., Fluo-4 no wash reagent-Invitrogen cat# F36206, or the BD™ PBX Calcium Assay Kit-BD cat#640175) in Hank's Buffered Salt Solution (HBSS) with up to 10 mM supplemental CaCl2. Plates are incubated at 37° C. and then equilibrated at room temperature. Antagonism of agonist-induced calcium influx is measured using a fluorescent imaging plate reader. The assay comprises two stages: a pre-treatment phase followed by a treatment phase. Compounds may be tested as follows: For the pre-treatment phase, 50 μL of 3× concentration of test compound in HBSS is added to cells containing 100 μL of dye loading media to achieve a final concentration of 1×. For the treatment phase, at a set interval after pre-treatment, 50 μL of 1× test compound plus 4× agonist solution is added to cells. Fluorescence is measured at 0.1-3 second intervals with an excitation wavelength of 494 nm and an emission wavelength of 515 nm. Responses are measured as peak fluorescence after compound-agonist addition minus baseline fluorescence prior to treatment. Percent inhibition is calculated as follows: […]
A calcium uptake assay was performed as described in paragraphs […] above.

[1] = at 3 μM (symbol before the slash)
[2] = at 10 μM (symbol after the slash)

Structure (SMILES)	Ca Influx P2X2/3C % Inhibition at 3 μM/10 μM [1]	Ca Influx P2X2/3C % Inhibition at 3 μM/10 μM [2]
CCc1ccc(CN(C)c2ncnc3c2CN(c2ccc(C)cn2)CC3)cc1 [Compound 65]	+/ (compound exhibited 0-25% inhibition at 3 μM)	
O=S(=O)(c1ccc(Nc2ncnc3c2CN(c2ncccc2Cl)CC3)cc1)C(F)(F)F [Compound 6, 6-(3-Chloropyridin-2-yl)-5,6,7,8-tetrahydro-N-(4-(trifluoromethylsulfonyl)phenyl)pyrido[4,3-d]pyrimidin-4-amine]	+/ (compound exhibited 0-25% inhibition at 3 μM)	
CC1(C)C(=O)Nc2cc(Nc3ncnc4c3CN(c3ncccc3Cl)CC4)ccc21 [Compound 13, 6-[6-(3-Chloro-pyridin-2-yl)-5,6,7,8-tetrahydro-pyrido[4,3-d]pyrimidin-4-ylamino]-3,3-dimethyl-1,3-dihydro-indol-2-one]		/* (compound exhibited 0-25% inhibition at 10 μM)
Cc1ccc(N2CCc3ncnc(N(C)Cc4ccccc4)c3C2)nc1 [Compound 36]	+/ (compound exhibited 0-25% inhibition at 3 μM)	
Cc1ccc(N2CCc3ncnc(NCc4ccc(F)c(C)c4)c3C2)nc1 [Compound 98]	++++/ ^ (compound exhibited 75% or greater inhibition at 3 μM)	
Cc1ccc(N2CCc3ncnc(NCc4ccc(F)c(C(F)(F)F)c4)c3C2)nc1 [Compound 76]	+/ (compound exhibited 0-25% inhibition at 3 μM)	
Cc1ccc(N2CCc3ncnc(NC(C)c4ccc(F)cc4)c3C2)nc1 (stereo not shown) [Compound 86]	++++/ ^ (compound exhibited 75% or greater inhibition at 3 μM)	
COc1cccc(CNc2ncnc3c2CN(c2ccc(C)cn2)CC3)c1 [Compound 28]	++++ (compound exhibited 75% or greater inhibition at 3 μM)	**** (compound exhibited 25-50% inhibition at 10 μM)
Cc1ccc(N2CCc3ncnc(NCc4ccccc4OC(F)(F)F)c3C2)nc1 [Compound 42]	++++/ ^ (compound exhibited 75% or greater inhibition at 3 μM)	
Cc1ccc(N2CCc3ncnc(NCc4ccc5c(c4)OCO5)c3C2)nc1 [Compound 37]	++++/ ^ (compound exhibited 75% or greater inhibition at 3 μM)	
Cc1ccc(N2CCc3ncnc(NCc4cccc(F)c4F)c3C2)nc1 [Compound 77]	++++/ ^ (compound exhibited 75% or greater inhibition at 3 μM)	
CC1(C)CNc2cc(Nc3ncnc4c3CN(c3ncccc3Cl)CC4)ccc21 [Compound 15, [6-(3-Chloro-pyridin-2-yl)-5,6,7,8-tetrahydro-pyrido[4,3-d]pyrimidin-4-yl]-(3,3-dimethyl-2,3-dihydro-1H-indol-6-yl)-amine HCl salt]		/* (compound exhibited 0-25% inhibition at 10 μM)
Cc1ccc(N2CCc3ncnc(NCc4cc(C(F)(F)F)ccc4F)c3C2)nc1 [Compound 74]	+/ (compound exhibited 0-25% inhibition at 3 μM)	
Cc1ccc(N2CCc3ncnc(NCc4ccc(C(F)(F)F)cc4)c3C2)nc1 [Compound 50]	++++/ ^ (compound exhibited 75% or greater inhibition at 3 μM)	
CC(C)(C)c1ccc(Nc2ncnc3c2CN(c2ncccc2Cl)CC3)cn1 [Compound 17, (6-tert-Butyl-pyridin-3-yl)-[6-(3-chloro-pyridin-2-yl)-5,6,7,8-tetrahydro-pyrido[4,3-d]pyrimidin-4-yl]-amine]		/* (compound exhibited 0-25% inhibition at 10 μM)
Cc1ccc(N2CCc3ncnc(N(C)Cc4ccc(Cl)cc4)c3C2)nc1 [Compound 62]	+/ (compound exhibited 0-25% inhibition at 3 μM)	
Cc1ccc(N2CCc3ncnc(NCc4cc(C(F)(F)F)cc(C(F)(F)F)c4)c3C2)nc1 [Compound 125]	+/ (compound exhibited 0-25% inhibition at 3 μM)	
Cc1ccc(N2CCc3ncnc(NCc4ccccc4OC(F)F)c3C2)nc1 [Compound 52]	++++/ ^ (compound exhibited 75% or greater inhibition at 3 μM)	

Structure (SMILES)	Ca Influx P2X2/3C % Inhibition at 3 μM/10 μM [1]	Ca Influx P2X2/3C % Inhibition at 3 μM/10 μM [2]
Cc1ccc(N2CCc3ncnc(NCC4CCCCC4)c3C2)nc1 [Compound 26]		/**** (compound exhibited 25-50% inhibition at 10 μM)
Clc1cccnc1N1CCc2ncnc(Nc3ccccc3)c2C1 [Compound 2, 6-(3-Chloropyridin-2-yl)-5,6,7,8-tetrahydro-N-phenylpyrido[4,3-d]pyrimidin-4-amine]	+/ (compound exhibited 0-25% inhibition at 3 μM)	
Cc1ccc(N2CCc3ncnc(NCc4ccc(Cl)cc4F)c3C2)nc1 [Compound 83]	+++/ ^ (compound exhibited 50-75% inhibition at 3 μM)	
Cc1ccc(N2CCc3ncnc(NCc4ccc(C(F)(F)F)cc4F)c3C2)nc1 [Compound 121]	++++/ ^ (compound exhibited 75% or greater inhibition at 3 μM)	
Cc1ccc(N2CCc3ncnc(NCc4cc(F)cc(C(F)(F)F)c4)c3C2)nc1 [Compound 75]	+/ (compound exhibited 0-25% inhibition at 3 μM)	
Cc1ccc(N2CCc3ncnc(NCCc4ccc(Cl)cc4)c3C2)nc1 [Compound 48]	++++/ ^ (compound exhibited 75% or greater inhibition at 3 μM)	
COc1cccc(CN(C)c2ncnc3c2CN(c2ccc(C)cn2)CC3)c1 [Compound 64]	+/ (compound exhibited 0-25% inhibition at 3 μM)	
Cc1ccc(N2CCc3ncnc(NCc4ccc(Cl)cc4)c3C2)nc1 [Compound 25]	++++/ ^ (compound exhibited 75% or greater inhibition at 3 μM)	
Cc1ccc(N2CCc3ncnc(NCc4cc(C(F)(F)F)ccc4Cl)c3C2)nc1 [Compound 89]	+ (compound exhibited 0-25% inhibition at 3 μM)	* (compound exhibited 0-25% inhibition at 10 μM)
Cc1ccc(N2CCc3ncnc(NCc4ccc(F)c(F)c4)c3C2)nc1 [Compound 73]	++++/ ^ (compound exhibited 75% or greater inhibition at 3 μM)	
COc1cc(CCNc2ncnc3c2CN(c2ccc(C)cn2)CC3)cc(OC)c1 [Compound 51]	+++/ ^ (compound exhibited 50-75% inhibition at 3 μM)	
COc1ccccc1CN(C)c1ncnc2c1CN(c1ccc(C)cn1)CC2 [Compound 63]	+/ (compound exhibited 0-25% inhibition at 3 μM)	
COc1ccc(CN(C)c2ncnc3c2CN(c2ccc(C)cn2)CC3)cc1OC [Compound 59]	++ (compound exhibited 25-50% inhibition at 3 μM)	**** (compound exhibited 25-50% inhibition at 10 μM)
Cc1ccc(N2CCc3ncnc(N(C)Cc4ccc(F)cc4)c3C2)nc1 [Compound 67]	+ (compound exhibited 0-25% inhibition at 3 μM)	*** (compound exhibited 25-50% inhibition at 10 μM)
Cc1ccc(N2CCc3ncnc(NCc4ccccc4C(F)(F)F)c3C2)nc1 [Compound 39]	+++/ ^ (compound exhibited 50-75% inhibition at 3 μM)	
Cc1ccc(N2CCc3ncnc(NCc4ccccc4Cl)c3C2)nc1 [Compound 30]	++++/ ^ (compound exhibited 75% or greater inhibition at 3 μM)	
Cc1ccc(N2CCc3ncnc(NCc4ccc(Cl)cc4Cl)c3C2)nc1 [Compound 78]	+/ (compound exhibited 0-25% inhibition at 3 μM)	
Cc1ccc(N2CCc3ncnc(NCc4cccc(F)c4)c3C2)nc1 [Compound 57]	++++/ ^ (compound exhibited 75% or greater inhibition at 3 μM)	
